Test results as given in patent publication US20250041263A1, “USE OF CATECHIN FOR THE TREATMENT OF FGFR-RELATED BONE REPAIR AND BONE FORMATION IMPAIRMENT” (INSTITUT NATIONAL DE LA SANTÉ ET DE LA RECHERCHE MÉDICALE, priority 2021, published 2025).

System: HCH mice (Fgfr3^N534K/+)
Experiment: Non-stabilized mandibular fracture repair in HCH mouse model (microCT, repair grade)
Type: in vivo
Settings: for BV/TV, treated vs untreated HCH mice: p<0.05
Procedure: I-Study of mandibular bone repair in the mouse model of hypochondroplasia (Fgfr3^[…]/+) Mandibular bone repair was studied in the HCH mouse model (Fgfr3^[…]/+). The experiments were performed in adult animals at 6 weeks of age, and mice were euthanized at 4 key points: during bone repair (10, 14, 21 days post fracture), and at the end of the normal bone healing process i.e. at 28 days post fracture. Vertical mandibular fractures were performed in the ascending ramus region in Fgfr3^[…]/+ and Fgfr3^+/+ mice. This is a non-stabilized mandibular fracture protocol allowing to analyze the endochondral bone repair process. Four batches (n=100) of Fgfr3^[…]/+ and Fgfr3^+/+ mandible fractures corresponding to different key stages of repair were studied (day 10, day 14, day 21, day 28). Using collagen type II (proliferative cartilage), type X (hypertrophic cartilage) and type I (bone) immunolabelling, we observed that the endochondral process is disturbed, we noted a delayed cartilage resorption, a reduction in the size of hypertrophic chondrocytes area and a defect in bone formation within the repair callus in Fgfr3^[…]/+ compared to Fgfr3^+/+. […] We observed the presence of pseudarthrosis (fibrosis in the callus) in Fgfr3^[…]/+ mice whereas we observed 100% of bone in Fgfr3^+/+ callus. Considering the quality of the newly formed bone at day 28, we defined four grades of repair and classified the mice according to their repair grade (from 1 to 4). The defective repair is significant in Fgfr3^[…]/+ compared to Fgfr3^+/+ (Data not shown). HCH mice (Fgfr3^[…]/+) were treated with (-)-epicatechin (subcutaneous injection at 0.3 mg/kg, 3 times per week) from day 0 (facture of the mandible) to day 14 or day 28. The bone repair analyses were evaluated by microCT scans at day 14 (FIG. 1A) and day 28 (FIG. 1B) post fracture.

[1] = day 28 grade repair, treated HCH mice
[2] = microCT, day 14 post fracture, FIG. 1A
[3] = microCT, day 28 post fracture, FIG. 1B
[4] = summary statement, time not stated

## Oc1cc(O)c2c(c1)O[C@H](c1ccc(O)c(O)c1)[C@H](O)C2 [(−)-epicatechin, (2R,3R)-2-(3,4-dihydroxyphenyl)-3,4-dihydro-2H-chromene-3,5,7-triol]
[1]
  Complete bone healing (grade 1), mice with grade / treated mice: 1/9
  Restoration of bone continuity, but presence of mild bone defects (grade 2), mice with grade / treated mice: 6/9
  presence of a bone callus, but with partial bone discontinuity (grade 3), mice with grade / treated mice: 2/9
Day 28 post fracture
  pseudarthrosis in treated HCH mice: did not observe pseudarthrosis
[2]
  BV/TV of treated Fgfr3^N534K/+ mandibles (in words): increased
  volume of the callus, treated vs untreated Fgfr3^N534K/+ (in words): unchanged
microCT, day 14 post fracture, subcutaneous 0.3 mg/kg, 3 times per week from day 0
  BV/TV, treated vs untreated HCH mice: +19%
[3]
  BV/TV of treated Fgfr3^N534K/+ mandibles (in words): increased
  volume of the callus, treated vs untreated Fgfr3^N534K/+ (in words): decreased
microCT, day 28 post fracture, subcutaneous 0.3 mg/kg, 3 times per week from day 0, p<0.01
  volume of the callus, treated vs untreated HCH mice: −39.8%
microCT, day 28 post fracture, subcutaneous 0.3 mg/kg, 3 times per week from day 0
  BV/TV, treated vs untreated HCH mice: +6.3%
[4]
  mandible bone formation and repair / defective bone reparation of the callus (overall, in words): improves

## catechin
[4]
  bone volume/total volume (overall, in words): increases
  mandible bone formation and repair / defective bone reparation of the callus (overall, in words): partially restores
  pseudarthrosis (overall, in words): without pseudarthrosis
